Assay results taken from patent US8993574B2, “Pyrrole antifungal agents” (F2G Ltd, priority 2008, dated 2015).
≈ marks a conversion by molar mass, not a printed value.

Experiments:
Assay type in all cases: cell-based
[1] = tested on: Aspergillus flavus; assay: MIC, YAG medium; details: 24 h at 35° C, MIC banded into grades; for MIC: Aspergillus flavus, 24 h, read-out: MIC grade, A. flavus
In short: (§1)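 MICs (mg/L) derive from the lowest compound concentration suppressing spore outgrowth by >70% against a drug-free well, by OD 485 nm. Conditions: YAG medium, 1−2×10^4 cfu/mL, 24 h, 35° C, two-fold dilutions from 50 mg/L.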

[2] = tested on: Aspergillus fumigatus AF210; assay: MIC, YAG medium; details: 24 h at 35° C, MIC banded into grades; for MIC: Aspergillus fumigatus, read-out: MIC grade, A. fumigatus 210
In short: as §1

[3] = tested on: Aspergillus fumigatus AF293; assay: MIC, YAG medium; details: 24 h at 35° C, MIC banded into grades; for MIC: Aspergillus fumigatus, read-out: MIC grade, A. fumigatus
In short: as §1

[4] = tested on: Aspergillus niger; assay: MIC, YAG medium; details: 24 h at 35° C, MIC banded into grades; for MIC: Aspergillus niger, read-out: MIC grade, A. niger
In short: as §1

[5] = tested on: Aspergillus terreus AT49; assay: MIC, YAG medium; details: 24 h at 35° C, MIC banded into grades; for MIC: Aspergillus terreus, read-out: MIC grade, A. terreus 49
In short: as §1

[6] = tested on: Aspergillus terreus AT4; assay: MIC, YAG medium; details: 24 h at 35° C, MIC banded into grades; for MIC: Aspergillus terreus, read-out: MIC grade, A. terreus
In short: as §1

[7] = tested on: Aspergillus flavus; assay: MIC, RPMI medium; details: MIC banded into grades; for MIC: Aspergillus flavus, read-out: MIC grade, A. flavus
In short: (§2)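 OD485-based endpoint after 24-48 h/35° C; MIC = lowest concentration, >80% inhibition relative to drug-free. RPMI/2% glucose/0.135 M MOPS pH 7.0; 1−2×10^4 cfu/mL; range 50-0.05 mg/L.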

[8] = tested on: Aspergillus fumigatus AF210; assay: MIC, RPMI medium; details: for MIC grade, A. fumigatus 210: MIC banded into grades; for MIC: Aspergillus fumigatus, AF210, MIC banded into grades, read-out: MIC grade, A. fumigatus 210
In short: as §2

[9] = tested on: Aspergillus fumigatus AF293; assay: MIC, RPMI medium; details: for MIC grade, A. fumigatus: MIC banded into grades; for MIC: Aspergillus fumigatus, AF293, MIC banded into grades, read-out: MIC grade, A. fumigatus
In short: as §2

[10] = tested on: Aspergillus niger; assay: MIC, RPMI medium; details: MIC banded into grades; for MIC: Aspergillus niger, read-out: MIC grade, A. niger
In short: as §2

[11] = tested on: Aspergillus terreus AT49; assay: MIC, RPMI medium; details: for MIC grade, A. terreus 49: MIC banded into grades; for MIC: Aspergillus terreus, AT49, MIC banded into grades, read-out: MIC grade, A. terreus 49
In short: as §2

[12] = tested on: Aspergillus terreus AT4; assay: MIC, RPMI medium; details: for MIC grade, A. terreus: MIC banded into grades; for MIC: Aspergillus terreus, AT4, MIC banded into grades, read-out: MIC grade, A. terreus
In short: as §2

[13] = tested on: Candida albicans; assay: MIC, RPMI medium; details: 24-48 h at 35° C., >80% growth inhibition, banded into grades; for MIC: Candida albicans
In short: as §2

[14] = tested on: Candida glabrata; assay: MIC, RPMI medium; details: 24-48 h at 35° C., >80% growth inhibition, banded into grades; for MIC: Nakaseomyces glabratus
In short: as §2

[15] = tested on: Candida krusei; assay: MIC, RPMI medium; details: 24-48 h at 35° C., >80% growth inhibition, banded into grades; for MIC: Pichia kudriavzevii
In short: as §2

[16] = tested on: Candida parapsilosis; assay: MIC, RPMI medium; details: 24-48 h at 35° C., >80% growth inhibition, banded into grades; for MIC: Lodderomyces parapsilosis
In short: as §2

[17] = tested on: Candida tropicalis; assay: MIC, RPMI medium; details: 24-48 h at 35° C., >80% growth inhibition, banded into grades; for MIC: Candida tropicalis
In short: as §2

MIC [1] [µg/mL]	MIC [2] [µg/mL]	MIC [3] [µg/mL]	MIC [4] [µg/mL]	MIC [5] [µg/mL]	MIC [6] [µg/mL]	MIC [7] [µg/mL]	MIC [8] [µg/mL]	MIC [9] [µg/mL]	MIC [10] [µg/mL]	MIC [11] [µg/mL]	MIC [12] [µg/mL]	MIC [13] [µg/mL]	MIC [14] [µg/mL]	MIC [15] [µg/mL]	MIC [16] [µg/mL]	MIC [17] [µg/mL]	Structure (SMILES)	also measured
1 to 10 (≈ 1.84 to 18.4 µM)	< 1	< 1	< 1	< 1	< 1	1 to 10 (≈ 1.84 to 18.4 µM)	1 to 10 (≈ 1.84 to 18.4 µM)	1 to 10 (≈ 1.84 to 18.4 µM)	1 to 10 (≈ 1.84 to 18.4 µM)	1 to 10 (≈ 1.84 to 18.4 µM)	1 to 10 (≈ 1.84 to 18.4 µM)	< 1	< 1	1 to 10 (≈ 1.84 to 18.4 µM)	< 1	< 1	COCCn1ccc(-c2ccsc2)c1C(=O)C(=O)Nc1ccc(N2CCN(c3cc(C)cc(C)n3)CC2)cc1 [Example 72, N-{4-[4-(4,6-Dimethyl-pyridin-2-yl)-piperazin-1-yl]-phenyl}-2-[1-(2-methoxy-ethyl)-3-thiophen-3-yl-1H-pyrrol-2-yl]-2-oxo-acetamide]	
1 to 10 (≈ 1.75 to 17.5 µM)	< 1	< 1	> 10	< 1	< 1	1 to 10 (≈ 1.75 to 17.5 µM)	1 to 10 (≈ 1.75 to 17.5 µM)	1 to 10 (≈ 1.75 to 17.5 µM)	> 10	1 to 10 (≈ 1.75 to 17.5 µM)	1 to 10 (≈ 1.75 to 17.5 µM)	1 to 10 (≈ 1.75 to 17.5 µM)	< 1	1 to 10 (≈ 1.75 to 17.5 µM)	< 1	1 to 10 (≈ 1.75 to 17.5 µM)	COCCn1ccc(-c2cccc(Cl)c2)c1C(=O)C(=O)Nc1ccc(N2CCN(c3cc(C)cc(C)n3)CC2)cc1 [Example 70, 2-[3-(3-Chloro-phenyl)-1-(2-methoxy-ethyl)-1H-pyrrol-2-yl]-N-{4-[4-(4,6-dimethyl-pyridin-2-yl)-piperazin-1-yl]-phenyl}-2-oxo-acetamide]	
< 1	< 1	< 1	< 1	< 1	< 1	< 1	< 1	< 1	< 1	< 1	< 1	< 1	< 1	< 1	< 1	< 1	Cc1cc(C)nc(N2CCN(c3ccc(NC(=O)C(=O)c4c(-c5cccs5)cc(C)n4C)cc3)CC2)c1 [Example 13, N-{4-[4-(4,6-Dimethyl-pyridin-2-yl)-piperazin-1-yl]-phenyl}-2-(1,5-dimethyl-3-thiophen-2-yl-1H-pyrrol-2-yl)-2-oxo-acetamide]	

The next lines start with the molecule.

Structure (SMILES)	MIC [1] [µg/mL]	MIC [2] [µg/mL]	MIC [3] [µg/mL]	MIC [4] [µg/mL]	MIC [5] [µg/mL]	MIC [6] [µg/mL]	MIC [7] [µg/mL]	MIC [8] [µg/mL]	MIC [9] [µg/mL]	MIC [10] [µg/mL]	MIC [11] [µg/mL]	MIC [12] [µg/mL]	MIC [13] [µg/mL]	MIC [14] [µg/mL]	MIC [15] [µg/mL]	MIC [16] [µg/mL]	MIC [17] [µg/mL]	also measured
COC(=O)Cn1ccc(-c2ccccc2)c1C(=O)C(=O)Nc1ccc(N2CCN(c3cc(C)cc(C)n3)CC2)cc1 [Example 74, (2-{4-[4-(4,6-Dimethyl-pyridin-2-yl)-piperazin-1-yl]-phenylaminooxalyl}-3-phenylpyrrol-1-yl)-acetic acid methyl ester]																		MIC grade, A. flavus [1]: 1 (a grade of 1 represents an MIC of greater than 10 mg/L); MIC grade, A. fumigatus 210 [2]: 3 (A grade of 3 represents an MIC of less than 1 mg/L); MIC grade, A. fumigatus [3]: 3 (A grade of 3 represents an MIC of less than 1 mg/L); MIC grade, A. niger [4]: 3 (A grade of 3 represents an MIC of less than 1 mg/L); MIC grade, A. terreus 49 [5]: 2 (A grade of 2 represents an MIC of from 1 to 10 mg/L); MIC grade, A. terreus [6]: 2 (A grade of 2 represents an MIC of from 1 to 10 mg/L); MIC grade, A. flavus [7]: 1 (a grade of 1 represents an MIC of greater than 10 mg/L); MIC grade, A. fumigatus 210 [8]: 3 (A grade of 3 represents an MIC of less than 1 mg/L); MIC grade, A. fumigatus [9]: 3 (A grade of 3 represents an MIC of less than 1 mg/L); MIC grade, A. niger [10]: 3 (A grade of 3 represents an MIC of less than 1 mg/L); MIC grade, A. terreus 49 [11]: 2 (A grade of 2 represents an MIC of from 1 to 10 mg/L); MIC grade, A. terreus [12]: 2 (A grade of 2 represents an MIC of from 1 to 10 mg/L); Candida MIC, C. albicans [13]: 2 (A grade of 2 represents an MIC of from 1 to 10 mg/L); Candida MIC, C. glabrata [14]: 3 (A grade of 3 represents an MIC of less than 1 mg/L); Candida MIC, C. krusei [15]: 2 (A grade of 2 represents an MIC of from 1 to 10 mg/L); Candida MIC, C. parapsilosis [16]: 3 (A grade of 3 represents an MIC of less than 1 mg/L); Candida MIC, C. tropicalis [17]: 3 (A grade of 3 represents an MIC of less than 1 mg/L)
CNC(=O)Cn1ccc(-c2ccccc2)c1C(=O)C(=O)Nc1ccc(N2CCN(c3cc(C)cc(C)n3)CC2)cc1 [Example 76, N-{4-[4-(4,6-Dimethyl-pyridin-2-yl)-piperazin-1-yl]-phenyl}-2-(1-methylcarbamoylmethyl-3-phenyl-1H-pyrrol-2-yl)-2-oxo-acetamide]	> 10	1 to 10 (≈ 1.82 to 18.2 µM)	1 to 10 (≈ 1.82 to 18.2 µM)	> 10	> 10	> 10	> 10	1 to 10 (≈ 1.82 to 18.2 µM)	> 10	> 10	> 10	> 10	< 1	< 1	< 1	< 1	< 1	
Cc1cc(C)nc(N2CCN(c3ccc(NC(=O)C(=O)c4c(-c5ccccc5)cc(C)n4CCN(C)C)cc3)CC2)c1 [Example 86, 2-[1-(2-Dimethylamino-ethyl)-5-methyl-3-phenyl-1H-pyrrol-2-yl]-N-{4-[4-(4,6-dimethyl-pyridin-2-yl)-piperazin-1-yl]-phenyl}-2-oxo-acetamide]	1 to 10 (≈ 1.77 to 17.7 µM)	> 10	> 10	> 10	> 10	> 10	> 10	> 10	> 10	> 10	> 10	> 10	< 1	< 1	< 1	< 1	< 1	
CCOC(=O)Cn1ccc(-c2ccccc2)c1C(=O)C(=O)Nc1ccc(N2CCN(c3cc(C)cc(C)n3)CC2)cc1 [Example 73, (2-{4-[4-(4,6-Dimethyl-pyridin-2-yl)-piperazin-1-yl]-phenylaminooxalyl}-3-phenyl-pyrrol-1-yl)-acetic acid ethyl ester]																		MIC grade, A. flavus [1]: 1 (a grade of 1 represents an MIC of greater than 10 mg/L); MIC grade, A. fumigatus 210 [2]: 3 (A grade of 3 represents an MIC of less than 1 mg/L); MIC grade, A. fumigatus [3]: 3 (A grade of 3 represents an MIC of less than 1 mg/L); MIC grade, A. niger [4]: 3 (A grade of 3 represents an MIC of less than 1 mg/L); MIC grade, A. terreus 49 [5]: 2 (A grade of 2 represents an MIC of from 1 to 10 mg/L); MIC grade, A. terreus [6]: 1 (a grade of 1 represents an MIC of greater than 10 mg/L); MIC grade, A. flavus [7]: 1 (a grade of 1 represents an MIC of greater than 10 mg/L); MIC grade, A. fumigatus 210 [8]: 3 (A grade of 3 represents an MIC of less than 1 mg/L); MIC grade, A. fumigatus [9]: 3 (A grade of 3 represents an MIC of less than 1 mg/L); MIC grade, A. niger [10]: 3 (A grade of 3 represents an MIC of less than 1 mg/L); MIC grade, A. terreus 49 [11]: 1 (a grade of 1 represents an MIC of greater than 10 mg/L); MIC grade, A. terreus [12]: 1 (a grade of 1 represents an MIC of greater than 10 mg/L); Candida MIC, C. albicans [13]: 2 (A grade of 2 represents an MIC of from 1 to 10 mg/L); Candida MIC, C. glabrata [14]: 3 (A grade of 3 represents an MIC of less than 1 mg/L); Candida MIC, C. krusei [15]: 2 (A grade of 2 represents an MIC of from 1 to 10 mg/L); Candida MIC, C. parapsilosis [16]: 2 (A grade of 2 represents an MIC of from 1 to 10 mg/L); Candida MIC, C. tropicalis [17]: 3 (A grade of 3 represents an MIC of less than 1 mg/L)
COCCn1ccc(-c2ccccc2)c1C(=O)C(=O)Nc1ccccc1 [Example 81, 2-[1-(2-Methoxy-ethyl)-3-phenyl-1H-pyrrol-2-yl]-2-oxo-N-phenyl-acetamide]	> 10	> 10	> 10	> 10	> 10	> 10	> 10	> 10	> 10	> 10	> 10	> 10	< 1	< 1	< 1	< 1	< 1	
